Patent US20250129127A1, “Systems for Amplification of AAV Rep and Cap Proteins” (priority 2022, published 2025)
Like-named read-outs stand apart in the source and are kept apart here.

What was measured:
AAV viral genomes = assay: Titer of capsids encapsidating the viral genome by nuclease treatment and qPCR after induction with doxycycline and tamoxifen; assay type: cell-based; settings: 1000 uM MSX; Fuji cell culture media lacking Gln; compared to T223 cells not exposed to MSX
Protocol: (§1) Capsid ELISA was performed to determine total capsid titer. Nuclease treatment and qPCR were performed to determine the titer of capsids encapsidating the viral genome (e.g., the payload construct). […] Fuij 7-2 cell media with 4 mM glutamax was used in the cell culture.

AAV capsid = assay: Capsid ELISA for total capsid titer after induction; assay type: cell-based; settings: 1000 uM MSX; Fuji cell culture media lacking Gln; compared to T223 cells not exposed to MSX
Protocol: as §1

T223 cells = tested on: T223 cells
Source text: FIG. 9 provides a schematic for GS repression/inhibition for the pathways described in FIG. 8. A GS-KO P2 cell line is independently transfected with the various Rep/Cap GS constructs (see above and FIG. 8). P3 cells are selected in cell culture media lacking glutamine (-Gln) to select for cells expressing a higher level of GS.

Structure (SMILES): CS(=N)(=O)CC[C@H](N)C(=O)O (some centres unmarked) [MSX, methionine sulfoximine]
- viral genomes (vg/mL) in T223 cells (AAV viral genomes): increased levels
- viral particles (Capsids/mL) in T223 cells (AAV capsid): increased levels
- MSX concentration from which survival is impacted (T223 cells; P3 T223 cells expressing wild type GS): ≥ 250 µM
- MSX concentration from which survival is impacted (T223 cells; T223 cells expressing full length GS, selective media): ≥ 250 µM
- reduction of viability (T223 cells; T223 cells, 500 uM MSX (of 50, 100, 250, 500 uM tested)): most effective in reducing viability
